Data published in PubChem BioAssay (NCI).
“And” between values parts separate entries of the source, which are not always exact repeats. Identical values can stand only once.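 Grown in 96-well plates, cells were treated for 48 hours with each compound at five concentrations. Insufficient inhibition: endpoint recorded as highest concentration tested. GI50: concentration for 50% inhibition of growth. TGI: total growth inhibition.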

Tests used:
Experiment in all cases: NCI tumour cell line growth inhibition, 48 h
DLD-1 colon = system: DLD-1 colon
HOP-18 NSCLC = system: HOP-18 NSCLC
LXFL 529 NSCLC = system: LXFL 529 NSCLC
DMS 273 small cell lung = system: DMS 273 small cell lung
SNB-78 CNS = system: SNB-78 CNS
DMS 114 small cell lung = system: DMS 114 small cell lung
SN12K1 renal = system: SN12K1 renal
P388 leukemia = system: P388 leukemia
XF 498 CNS = system: XF 498 CNS
P388/ADR leukemia = system: P388/ADR leukemia
RXF-631 renal = system: RXF-631 renal

| Compound | TGI (DLD-1 colon) [µM] | TGI (HOP-18 NSCLC) [µM] | TGI (LXFL 529 NSCLC) | TGI (DMS 273 small cell lung) [µM] | TGI (SNB-78 CNS) [µM] | TGI (DMS 114 small cell lung) [µM] | TGI (SN12K1 renal) [µM] | TGI (P388 leukemia) [µM] | TGI (XF 498 CNS) [µM] | TGI (P388/ADR leukemia) [µM] | TGI (RXF-631 renal) [µM] | GI50 (DLD-1 colon) [µM] | GI50 (LXFL 529 NSCLC) [µM] | GI50 (DMS 273 small cell lung) [µM] | GI50 (SNB-78 CNS) [µM] |
| --- | --- | --- | --- | --- | --- | --- | --- | --- | --- | --- | --- | --- | --- | --- | --- |
| O=C(CSSCC(=O)OCCS(=O)(=O)Nc1ccc(Br)cc1)OCCS(=O)(=O)Nc1ccc(Br)cc1 | > 100 | > 100 | 34.1 µM | 40.3 | 71.3 | 29.3 |  |  |  |  |  |  |  |  |  |
| O=C(NC(Cc1ccc(Cl)cc1)C(=O)O)c1ccc(I)cc1 (stereo unspecified) | > 100 | > 100 |  | > 100 | > 100 |  | > 100 | > 100 | > 100 | > 100 |  |  |  |  |  |
| COc1ccc(N=Nc2c(N)nn(C)c2N)cc1 | > 100 | > 100 | > 100 µM | > 100 | > 100 | > 100 |  |  |  |  | > 100 |  |  |  |  |
| CCCCCCCCCCCCSC(=S)c1c(C)[nH]n(CCCCCCCCCCCC)c1=O | > 100 | > 100 | > 100 µM |  | > 100 | > 100 |  |  |  |  | > 100 |  |  |  |  |
| CN1NC(c2ccccc2)=C(C#N)C(=O)CC1c1ccc(F)cc1 (stereo unspecified) | > 100 | > 100 | > 100 µM | > 100 | > 100 | > 100 |  |  | > 100 |  | > 100 |  |  |  |  |
| CCCCCCCCCCCCCCCCCC(=O)OCC1OC(OC)C(NC(=O)N(CCCl)N=O)C(O)C1O (stereo unspecified) | > 100 | > 100 | 37.5 µM | 56.9 | > 100 |  |  |  | 44 |  |  |  |  |  |  |
| CCN(CCO)CCNc1ccc(C)c2sc3ccccc3c(=O)c12 | 14.2 | 24.3 | 10.4 µM | 6.94 | 20.6 | 20.6 |  |  | 10 |  |  |  |  |  |  |
| COc1ccc(N=Cc2ccc(N(CCC#N)S(=O)(=O)c3ccccc3)cc2C)cc1 |  | > 100 | > 100 µM |  | > 100 | > 100 |  |  | > 100 |  | > 100 |  |  |  |  |
| C[C@H]1CCC/C=C/[C@@H]2C[C@H](O)C[C@H]2[C@H](O)/C=C/C(=O)O1 | 17.3 | 2.41 | 0.0285 µM and 0.11 µM | 0.148 | > 100 |  |  |  |  |  | 0.272 | 0.0381 | 0.031 | 0.0305 | 0.0324 |
| COc1cccc(NC(=O)CC(=O)NN2C(=O)/C(=C/c3ccc(N(CCC#N)CCC#N)cc3)N=C2c2cc([N+](=O)[O-])ccc2Cl)c1 | > 100 |  | > 100 µM | > 100 | > 100 | > 100 |  |  | > 100 |  | > 100 |  |  |  |  |
